Among the data in ChEMBL document CHEMBL5726283, “Cycloalkyl nitrile pyrazolo pyridones as Janus kinase inhibitors” (2017) are IC50 values, retold here.

Test [1] deals with Tyrosine-protein kinase JAK1 (Homo sapiens, UniProt P23458). The test is described as follows: Biochemical HTRF Assay Protocol: The ability of compounds to inhibit the activity of JAK1, JAK2, JAK3, and Tyk2 was measured using a recombinant purified GST-tagged catalytic domain for each enzyme (Invitrogen JAK1 #M4290, JAK2 #M4290, JAK3 #M4290, Tyk2 #M4290) in an HTRF format biochemical assay. The reactions employed a common peptide substrate, LCB-[…]-NH2 (in-house). The basic assay protocol is as follows: First, 250 nL of diluted compounds in DMSO were dispensed into the wells of a dry 384-well Black plate (Greiner #781076) using a Labcyte Echo 555 acoustic dispenser. Subsequent reagent additions employed an Agilent Bravo. Next, 18 μL of 1.11× enzyme and 1.11× substrate in 1× assay buffer (Invitrogen kinase buffer #PV3189, 2 mM DTT, 0.05% BSA) were added to the wells and shaken and then preincubated for 30 minutes at room temperature to allow compound binding to equilibrate. After equilibration, 2 μL of 10×ATP in 1× assay buffer was added to initiate the kinase reaction and the plates were shaken and then incubated at room temperature for 120 minutes. At the end of the incubation, 20 μL of 2× stop buffer (streptavidin-Dylight 650 (Thermo #84547B/100 mL), Eu-tagged pY20 antibody (Perkin Elmer #AD0067), EDTA, HEPES, and Triton) was added to quench the reaction. Plates were shaken and centrifuged and then incubated 60 minutes at room temperature and then read on a Perkin Elmer Envision (λex=337 nm, λem=665 and 615 nm, TRF delay time=20 μs). HTRF signal=10,000*665 nm reading/615 nm reading. After normalization to untreated controls, the percent inhibition of the HTRF signal at each compound concentration was calculated.

Test [2] deals with Tyrosine-protein kinase JAK2 (Homo sapiens, UniProt O60674). The test is described as follows: Biochemical HTRF Assay Protocol: The ability of compounds to inhibit the activity of JAK1, JAK2, JAK3, and Tyk2 was measured using a recombinant purified GST-tagged catalytic domain for each enzyme (Invitrogen JAK1 #M4290, JAK2 #M4290, JAK3 #M4290, Tyk2 #M4290) in an HTRF format biochemical assay. […] Subsequent reagent additions employed an Agilent Bravo. […] After equilibration, 2 μL of 10×ATP in 1× assay buffer was added to initiate the kinase reaction and the plates were shaken and then incubated at room temperature for 120 minutes. […] After normalization to untreated controls, the percent inhibition of the HTRF signal at each compound concentration was calculated.

Structures are written as SMILES. pIC50: −log10 of the molar value.

Sequence of Tyrosine-protein kinase JAK1 (P23458 whole entry, the tested form may be a part): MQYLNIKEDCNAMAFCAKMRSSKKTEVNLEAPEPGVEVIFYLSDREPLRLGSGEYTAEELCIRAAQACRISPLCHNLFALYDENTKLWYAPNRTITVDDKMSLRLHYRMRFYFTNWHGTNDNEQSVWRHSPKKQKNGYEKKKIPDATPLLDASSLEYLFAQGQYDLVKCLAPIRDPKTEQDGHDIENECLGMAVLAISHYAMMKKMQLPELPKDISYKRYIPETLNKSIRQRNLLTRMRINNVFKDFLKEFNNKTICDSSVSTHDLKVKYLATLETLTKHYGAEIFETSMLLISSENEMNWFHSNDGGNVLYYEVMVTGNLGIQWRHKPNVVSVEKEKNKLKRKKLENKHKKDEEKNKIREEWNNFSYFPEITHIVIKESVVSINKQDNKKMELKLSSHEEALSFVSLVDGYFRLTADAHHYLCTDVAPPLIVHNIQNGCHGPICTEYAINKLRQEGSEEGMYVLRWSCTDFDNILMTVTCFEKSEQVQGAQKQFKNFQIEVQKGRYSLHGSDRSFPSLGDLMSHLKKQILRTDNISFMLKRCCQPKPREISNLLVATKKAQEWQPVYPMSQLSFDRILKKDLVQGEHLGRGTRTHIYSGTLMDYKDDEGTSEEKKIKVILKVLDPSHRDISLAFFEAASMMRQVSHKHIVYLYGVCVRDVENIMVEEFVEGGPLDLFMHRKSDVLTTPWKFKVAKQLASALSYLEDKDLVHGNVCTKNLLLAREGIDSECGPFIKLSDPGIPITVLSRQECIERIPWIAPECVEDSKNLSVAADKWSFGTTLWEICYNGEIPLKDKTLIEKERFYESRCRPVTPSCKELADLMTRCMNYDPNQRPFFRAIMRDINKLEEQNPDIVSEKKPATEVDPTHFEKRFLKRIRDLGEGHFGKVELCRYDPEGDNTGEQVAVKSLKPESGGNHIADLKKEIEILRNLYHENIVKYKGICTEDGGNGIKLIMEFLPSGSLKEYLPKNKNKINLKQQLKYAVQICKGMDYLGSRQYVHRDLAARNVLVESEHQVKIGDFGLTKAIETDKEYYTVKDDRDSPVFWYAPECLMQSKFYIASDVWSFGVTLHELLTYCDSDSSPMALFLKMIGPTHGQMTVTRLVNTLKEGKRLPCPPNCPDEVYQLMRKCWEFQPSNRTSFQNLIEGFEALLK
Sequence of Tyrosine-protein kinase JAK2 (O60674 whole entry, the tested form may be a part): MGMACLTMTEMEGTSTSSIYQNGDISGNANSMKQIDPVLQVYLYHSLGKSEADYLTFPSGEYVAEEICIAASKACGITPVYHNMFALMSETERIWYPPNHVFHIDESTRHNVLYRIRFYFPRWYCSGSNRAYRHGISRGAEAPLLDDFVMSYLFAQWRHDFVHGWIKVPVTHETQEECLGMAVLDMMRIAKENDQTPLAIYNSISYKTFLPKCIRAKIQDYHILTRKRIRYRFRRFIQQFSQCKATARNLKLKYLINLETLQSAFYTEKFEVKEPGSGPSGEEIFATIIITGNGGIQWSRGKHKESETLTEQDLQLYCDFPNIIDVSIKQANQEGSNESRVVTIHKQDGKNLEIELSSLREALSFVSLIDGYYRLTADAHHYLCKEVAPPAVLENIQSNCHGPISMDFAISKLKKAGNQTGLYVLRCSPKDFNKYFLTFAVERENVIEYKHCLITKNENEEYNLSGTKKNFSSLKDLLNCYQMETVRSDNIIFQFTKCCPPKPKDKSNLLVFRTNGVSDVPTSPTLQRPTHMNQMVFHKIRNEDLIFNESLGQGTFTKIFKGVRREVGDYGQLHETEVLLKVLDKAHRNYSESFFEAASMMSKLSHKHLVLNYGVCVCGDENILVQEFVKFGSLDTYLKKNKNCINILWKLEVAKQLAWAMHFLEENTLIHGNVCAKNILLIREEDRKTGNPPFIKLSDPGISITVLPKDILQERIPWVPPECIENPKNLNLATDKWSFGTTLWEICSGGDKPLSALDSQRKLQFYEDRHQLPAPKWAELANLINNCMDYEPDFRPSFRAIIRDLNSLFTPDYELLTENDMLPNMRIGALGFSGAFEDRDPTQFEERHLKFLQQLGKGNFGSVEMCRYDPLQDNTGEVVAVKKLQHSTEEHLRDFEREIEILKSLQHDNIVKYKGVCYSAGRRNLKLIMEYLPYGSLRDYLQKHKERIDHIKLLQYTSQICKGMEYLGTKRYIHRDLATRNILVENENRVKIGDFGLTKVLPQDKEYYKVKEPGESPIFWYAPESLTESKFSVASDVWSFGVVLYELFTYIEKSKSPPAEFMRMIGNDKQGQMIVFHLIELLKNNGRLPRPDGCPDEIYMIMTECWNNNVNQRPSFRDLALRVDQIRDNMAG

In the case of `CS(=O)(=O)c1ccc(Nc2nn([C@@H]3CCC[C@H]3C#N)c3cc[nH]c(=O)c23)cc1`, the pIC50 (as a rule, −log10 of the IC50, conventionally taken in molar units) in test [1] was 8.33.
In the case of `Cc1cc(Nc2nn([C@H]3CCCC[C@@H]3C#N)c3cc[nH]c(=O)c23)ccc1C(=O)N1CCC(F)(F)CC1`, the negative-log IC50 (pIC50) was 9.49 in test [1] and 9.43 in test [2].
For `CN(C)S(=O)(=O)c1ccc(Nc2nn([C@H]3CCC[C@@H]3C#N)c3cc[nH]c(=O)c23)cc1` the same measures were 9.96 and 9.52.
As for `N#C[C@H]1C[C@H](O)CC[C@@H]1n1nc(Nc2ccc(C(F)(F)F)cc2)c2c(=O)[nH]ccc21`, the pIC50 in test [1] is 9.32.
